Results taken from patent publication US20160311795A1, “PYRIMIDINE DIAMINE DERIVATIVES AS INHIBITORS OF CYTOSOLIC HSP90” (CALASIA PHARMACEUTICALS, INC., priority 2012, published 2016).
Like-named read-outs stand apart in the source and are kept apart here.

How the values were obtained:
[1] = system: Hsp70 in MBA-MD-231 cells; assay: Hsp70 induction, ELISA; assay type: cell-based; conditions: MBA-MD-231, 48 hours
Protocol: Experiments were performed using U251 MG and MBA-MD-231 cells to also measure induction of Hsp 70 in response to treatment with SBI-0640725. […] For Hsp70 induction measurements, cells were treated with increasing concentrations of SBI-0640725 for 48 hours, and Hsp70 levels were measured in cell lysates using ELISA.

[2] = system: EGFR in U251MG cells; assay: Hsp90 client protein stability, EGFR; assay type: cell-based, human; conditions: 48 hours, increasing concentrations
[3] = biological target: T1, human full length Hsp90 (Homo sapiens, UniProt P07900); assay: Fluorescence polarization Hsp90 competitive binding assay (GM-FITC displacement)
T1 construct: amino acid residues 1 to 732 of human Hsp90 (GenBank: BC121062.2); made in house; host or cells: E. coli BL21DE3 (pET15b)
Protocol: Hsp90 binding assays was performed generally according to the procedure described in J. Biomol. […] Hsp90 inhibitors were solubilized in DMSO at a stock concentration of 50 mM. […] Eighty five μl of binding assay buffer (20 mM HEPES, pH-7.5, 50 mM KCl, 5 mM MgCl2, 20 mM sodium molybdate, 0.01% NP-40, 2 mM DTT, and 0.1 mg/ml BSA) was added to the wells of a 96 well black plate placed on ice. […] Next, 10 μl either binding assay buffer alone (control) or human full length Hsp90 protein diluted in the binding assay buffer was added to achieve a final concentration of 50 nM. The plates were incubated at 4° C. on a plate shaker for 24 h. Two μl of 50× GM-FITC (9 nM final) in DMSO was added to all wells and the plate was incubated at ambient temperature for 1 h with shaking. Fluorescence polarization readings were taken in duplicate at excitation and emission wavelengths of 480 nm and 500 nm respectively. Specific binding was calculated by subtracting polarization values in the presence of Hsp90 from those in the absence of Hsp90. To calculate percent inhibition the specific binding values obtained for GA-FITC in the presence of compound were compared to values for GA-FITC in the absence of compound (DMSO only).

[4] = system: Caspase 3/7 activity in MBA-MD-231 cells; assay: Cellular Caspase-3/7 luminescence assay; assay type: cell-based; conditions: MBA-MD-231, 72 hours
Protocol: (§1) Further, the effect of SBI-0640725 on cellular caspase levels was also quantitated in U251MG, MBA-MD-231 and HepG2 cells. Each cell type was treated with increasing concentrations of SBI-0640725 for 72 hours. Quantification of total cellular Caspase-3 and 7 activity was accomplished using a Caspase-3/7 luminescence assay kit (Promega) according to the manufacturer's recommendations, and analyzed with a POLARstar Omega micro-titer plate reader (BMG). […] Caspase activity is a marker for apoptotic cell death.

[5] = system: Caspase 3/7 activity in HepG2 cells; assay: Cellular Caspase-3/7 luminescence assay; assay type: cell-based; conditions: HepG2, 72 hours
Protocol: as §1

[6] = system: U87MG; assay: Efficacy in GBM cells, ADP-GLO; assay type: cell-based; conditions: Homo sapiens, U-87 MG
[7] = system: HepG2; assay: Cell viability / efficacy in liver cancer cells, ADP-GLO; assay type: cell-based
Protocol: The effect of SBI-0640725 on cell viability was determined by measuring cellular dehydrogenase activity (U251MG and MBA-MD-231 cells) or by measuring ADP levels (HepG2) after treating cells for 72 hours with increasing concentrations of SBI-0640725. To measure dehydrogenase activity, CCK-8 kit reagent (Dojindo) was added to the wells and incubated for 2 hours, after which absorbance was measured at 450 nm using a Synergy HT micro-titer plate reader (Biotek). To measure ADP levels, ADP-GLO reagent (Life Technologies) was added to the wells, and luminescence was measured after a 30 minute incubation using a POLARstar Omega micro-titer plate reader (BMG).
The table below summarizes efficacy of SBI-0640725 in various cancer cell lines, including U251MG, MDA-MB-231, and HepG2, using ADP-GLO assay described above. As used herein “efficacy” (EC50) is the concentration of a compound that produces half-maximal response in a cellular assay.

[8] = system: LnCaP cells; assay: Tumor cell viability, ATPlite; assay type: cell-based; conditions: Homo sapiens, 72 h, read-out: EC50, decrease in cell viability
Protocol: (§2) Akt1 levels in the cell lysates were measured using kits from R&D Systems used according to the manufacturer's recommendations. Cell lysates were assayed at a 1:24 dilution for the Akt1 ELISA. The Akt1 concentrations in the cell lysates were extrapolated from the standard curve and corrected for lysate protein concentration. Akt1 levels were determined using a micro-titer plate reader (Model #Synergy HT; BioTek Inc., Winooski, Vt.). LnCaP cells were cultured in culture medium and passaged after lifting using 0.25% trypsin/EDTA. LnCaP cells were seeded into a 96 well tissue culture plate at 1.3×10^4 cells per well in a volume of 100 uL of culture medium. […] Caspase 3/7 activity was measured using a Homogeneous Caspase 3/7 Assay Kit used according to the manufacturer's recommendations. In detail, an equal volume of Caspase 3/7 Assay Kit reagent was added to the wells and fluorescence readings (Ex/Em 485/528) were taken after 3, 6, and 23 h at ambient temperature using a micro-titer plate reader. […] Fluorescence intensities of the dilutions were measured to obtain a standard curve. […] Cell viability was measured with the ATPlite Kit used according to the manufacturer's recommendation. […] Cultures were mixed at 1,000 rpm for 2 min in the dark and luminescence quantification was accomplished using a micro-titer plate reader (POLARstar Omega micro-titer plate reader; BMG Labtech).

[9] = system: Caspase-3 in LnCaP cells; assay: Caspase 3/7 induction; assay type: cell-based, human; conditions: 10 μM concentration
Protocol: as §2

[10] = IC50, inhibition of Hsp90 activity, FIG. 7 concentration response
[11] = Table 1, 50 nM Hsp90, 9 nM GM-FITC, read-out: Biochemical Potency IC50
[12] = Table II, binding affinities ranked by potency
[13] = Table II, binding affinities ranked by potency, read-out: IC50

IC50 [3, 10] [nM] | IC50 [3, 11] [nM] | Ki [3, 12] [nM] | IC50 [3, 13] [nM] | EC50 [6] [nM] | EC50 ([7]; Homo sapiens, Liver Cancer, HepG2, ADP-GLO) [nM] | EC50 [8] [nM] | IC50 ([3]; assay validation / precision runs, read-out: IC50) [nM] | SMILES | induction of Hsp70 [1] | level of the client protein EGFR [2] | Caspase 3/7 activity [4] | Caspase 3/7 activity [5] | cell viability ([7]; HepG2, 72 hours, ADP levels (ADP-GLO)) | induction of Caspase-3 [9]
101 | 101 | 25 | 101 | 6700 | 1300 | – | – | COc1c(C)cnc(CN(CCc2ccc(F)cc2)c2cc(Cl)nc(N)n2)c1C [SBI-0640725] | caused induction of Hsp70 | observed to decrease | increase in Caspase 3/7 activity | increase in Caspase 3/7 activity | reduction in cell viability | –
255 | 255 | 64 | 255 | – | – | 3800 | 255 to 308 | COc1c(C)cnc(CN(CCc2ccccc2)c2cc(Cl)nc(N)n2)c1C [SBI-0639353, 6-Chloro-N4-((4-methoxy-3,5-dimethylpyridin-2-yl)methyl)-N4-phenethylpyrimidine-2,4-diamine] | – | – | – | – | – | induction of Caspase-3
